This is an account of results in ChEMBL document CHEMBL1150938, “Recent natural products based drug development: a pharmaceutical industry perspective” (J Nat Prod, 1998).

Assay [1] deals with Homo sapiens. As to the kind of experiment: Reduction in serum LDL-cholesterol level in normolipidemic human at 300 mg administered twice daily for 2 weeks. It is filed as functional. On the set-up: scale not given: the % may be the effect or the level left.
In assay [2] the test system is Homo sapiens. Kind of assay: Inhibition of fractional cholesterol absorption in normolipidemic human at 300 mg administered twice daily for 2 weeks. Type of assay: functional. On the set-up: scale not given: the % may be the effect or the level left.

Molecules are shown by their SMILES.

On to `C[C@@H]1CC[C@@]2(OC1)O[C@H]1C[C@H]3[C@@H]4CC[C@H]5C[C@@H](O[C@@H]6O[C@H](CO)[C@@H](O[C@@H]7O[C@H](CO)[C@@H](O)[C@H](O)[C@H]7O)[C@H](O)[C@H]6O)CC[C@]5(C)[C@H]4C(=O)C[C@]3(C)[C@H]1[C@@H]2C` [PAMAQUESIDE], for which the Activity is 10% in the assay with Homo sapiens [1] and 35% in the assay on Homo sapiens [2].
